Here are results for 2 compounds from article PMC6120666 (The EMBO Journal, 2018).

SMILES strings stand for the structures.

What all share (experiment): Drug affinity chromatography with c-ponatinib and LC-MS/MS (ponatinib interactome)
Assay type in all cases: binding

For test [1], the target named is T1, proteins of U2OS cell lysate (Homo sapiens, UniProt P20700).
T1 construct: Proteins enriched by c-ponatinib from U2OS cell lysate; endogenous in cells; host or cells: U2OS cell lysate
To be noted: LMNB1, Lamin-B1. The essentials: (§1)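 Proteins were identified by nano-UPLC–MS/MS after elution with formic acid and trypsin digestion. They were captured from U2OS lysate (2 mg protein per pulldown, NP-40 buffer) on amine-coupled NHS beads during a 2 h incubation at 4 °C.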

Test [2] addresses T2, proteins of U2OS cell lysate (Homo sapiens, UniProt O00303).
T2 construct: Proteins enriched by c-ponatinib from U2OS cell lysate; endogenous in cells; host or cells: U2OS cell lysate
The settings on record: EIF3F, Eukaryotic translation initiation factor 3 subunit F. An outline of the steps:
as §1

Test [3] concerns the target T3, proteins of U2OS cell lysate (Homo sapiens, UniProt P34932).
T3 construct: Proteins enriched by c-ponatinib from U2OS cell lysate; endogenous in cells; host or cells: U2OS cell lysate
The settings on record: HSPA4, Heat shock 70 kDa protein 4. An outline of the steps: as §1

In test [4] the target is T4, proteins of U2OS cell lysate (Homo sapiens, UniProt P06748).
T4 construct: Proteins enriched by c-ponatinib from U2OS cell lysate; endogenous in cells; host or cells: U2OS cell lysate
T4 sequence (P06748 whole entry): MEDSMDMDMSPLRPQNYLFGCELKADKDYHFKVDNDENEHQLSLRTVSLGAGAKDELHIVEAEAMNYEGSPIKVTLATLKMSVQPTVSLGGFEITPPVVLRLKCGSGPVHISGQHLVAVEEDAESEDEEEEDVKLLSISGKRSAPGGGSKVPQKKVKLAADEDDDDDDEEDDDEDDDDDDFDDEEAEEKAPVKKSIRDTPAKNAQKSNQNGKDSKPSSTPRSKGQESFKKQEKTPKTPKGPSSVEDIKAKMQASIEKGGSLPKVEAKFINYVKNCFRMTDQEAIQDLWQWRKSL
The settings on record: NPM1, Nucleophosmin. An outline of the steps: as §1

The target in test [5] is T5, proteins of U2OS cell lysate (Homo sapiens, UniProt P23528).
T5 construct: Proteins enriched by c-ponatinib from U2OS cell lysate; endogenous in cells; host or cells: U2OS cell lysate
The settings on record: CFL1, Cofilin-1. An outline of the steps: as §1

Test [6] has as its target T6, proteins of U2OS cell lysate (Homo sapiens, UniProt O75935).
T6 construct: Proteins enriched by c-ponatinib from U2OS cell lysate; endogenous in cells; host or cells: U2OS cell lysate
To be noted: DCTN3, Dynactin subunit 3. The essentials: as §1

Test [7] deals with T7, proteins of U2OS cell lysate (Homo sapiens, UniProt P61026).
T7 construct: Proteins enriched by c-ponatinib from U2OS cell lysate; endogenous in cells; host or cells: U2OS cell lysate
T7 sequence (P61026 whole entry): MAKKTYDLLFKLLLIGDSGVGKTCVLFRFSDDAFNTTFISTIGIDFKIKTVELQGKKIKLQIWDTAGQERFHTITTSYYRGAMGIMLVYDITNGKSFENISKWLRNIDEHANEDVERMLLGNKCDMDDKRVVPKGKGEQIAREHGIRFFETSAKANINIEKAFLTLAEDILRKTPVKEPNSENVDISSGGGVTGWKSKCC
The settings on record: RAB10, Ras-related protein Rab-10. The essentials:
as §1

Test [8] addresses T8, proteins of U2OS cell lysate (Homo sapiens, UniProt O43809).
T8 construct: Proteins enriched by c-ponatinib from U2OS cell lysate; endogenous in cells; host or cells: U2OS cell lysate
The settings on record: NUDT21, Cleavage and polyadenylation specificity factor subunit 5. The essentials:
as §1

The target in test [9] is T9, proteins of U2OS cell lysate (Homo sapiens, UniProt Q01650).
T9 construct: Proteins enriched by c-ponatinib from U2OS cell lysate; endogenous in cells; host or cells: U2OS cell lysate
T9 sequence (Q01650 whole entry): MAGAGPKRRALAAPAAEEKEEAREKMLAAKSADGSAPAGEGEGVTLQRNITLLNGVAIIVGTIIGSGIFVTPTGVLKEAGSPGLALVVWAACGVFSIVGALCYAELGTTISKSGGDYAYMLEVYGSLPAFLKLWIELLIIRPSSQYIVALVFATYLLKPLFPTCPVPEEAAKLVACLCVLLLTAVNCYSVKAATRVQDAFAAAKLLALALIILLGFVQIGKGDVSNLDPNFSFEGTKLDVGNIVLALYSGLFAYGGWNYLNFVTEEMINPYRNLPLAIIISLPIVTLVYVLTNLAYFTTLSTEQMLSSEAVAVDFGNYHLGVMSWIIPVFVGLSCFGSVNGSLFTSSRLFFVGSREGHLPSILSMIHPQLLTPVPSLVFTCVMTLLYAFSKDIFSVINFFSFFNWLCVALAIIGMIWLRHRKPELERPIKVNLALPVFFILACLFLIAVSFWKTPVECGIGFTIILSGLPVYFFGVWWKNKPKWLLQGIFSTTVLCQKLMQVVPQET
To be noted: SLC7A5, Large neutral amino acids transporter small subunit 1. The essentials:
as §1

For test [10], the target named is T10, proteins of U2OS cell lysate (Homo sapiens, UniProt P84090).
T10 construct: Proteins enriched by c-ponatinib from U2OS cell lysate; endogenous in cells; host or cells: U2OS cell lysate
T10 sequence (P84090 whole entry): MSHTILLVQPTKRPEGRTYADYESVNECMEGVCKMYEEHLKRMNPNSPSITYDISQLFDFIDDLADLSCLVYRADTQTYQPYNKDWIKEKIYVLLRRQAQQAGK
To be noted: ERH, Enhancer of rudimentary homolog. An outline of the steps:
as §1

Test [11] addresses T11, proteins of U2OS cell lysate (Homo sapiens, UniProt Q15149).
T11 construct: Proteins enriched by c-ponatinib from U2OS cell lysate; endogenous in cells; host or cells: U2OS cell lysate
To be noted: PLEC, Plectin. An outline of the steps:
as §1

In test [12] the target is T12, proteins of U2OS cell lysate (Homo sapiens, UniProt P60174).
T12 construct: Proteins enriched by c-ponatinib from U2OS cell lysate; endogenous in cells; host or cells: U2OS cell lysate
T12 sequence (P60174 whole entry): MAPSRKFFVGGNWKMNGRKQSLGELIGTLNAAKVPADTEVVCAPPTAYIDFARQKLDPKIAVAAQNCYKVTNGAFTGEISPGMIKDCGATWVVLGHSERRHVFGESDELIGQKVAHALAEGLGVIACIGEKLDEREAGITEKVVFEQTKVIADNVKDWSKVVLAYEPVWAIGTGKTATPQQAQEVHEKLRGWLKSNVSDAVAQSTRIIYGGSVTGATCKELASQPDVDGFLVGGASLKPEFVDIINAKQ
The settings on record: TPI1, Triosephosphate isomerase. An outline of the steps: as §1

For test [13], the target named is T13, proteins of U2OS cell lysate (Homo sapiens, UniProt O95232).
T13 construct: Proteins enriched by c-ponatinib from U2OS cell lysate; endogenous in cells; host or cells: U2OS cell lysate
T13 sequence (O95232 whole entry): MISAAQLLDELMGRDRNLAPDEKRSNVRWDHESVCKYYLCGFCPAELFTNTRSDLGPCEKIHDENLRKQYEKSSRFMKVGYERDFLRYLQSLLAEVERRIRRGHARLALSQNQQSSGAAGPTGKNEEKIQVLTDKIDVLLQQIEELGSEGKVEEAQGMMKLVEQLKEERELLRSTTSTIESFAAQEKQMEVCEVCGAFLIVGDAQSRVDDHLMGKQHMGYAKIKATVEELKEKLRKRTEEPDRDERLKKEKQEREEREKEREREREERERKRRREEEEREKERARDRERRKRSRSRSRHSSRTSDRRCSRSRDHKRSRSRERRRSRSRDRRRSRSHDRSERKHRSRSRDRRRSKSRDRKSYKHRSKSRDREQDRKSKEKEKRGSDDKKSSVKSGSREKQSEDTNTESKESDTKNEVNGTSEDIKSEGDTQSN
The settings on record: LUC7L3, Luc7-like protein 3. The essentials: as §1

Test [14] addresses T14, proteins of U2OS cell lysate (Homo sapiens, UniProt P07948).
T14 construct: Proteins enriched by c-ponatinib from U2OS cell lysate; endogenous in cells; host or cells: U2OS cell lysate
To be noted: LYN, Tyrosine-protein kinase Lyn. An outline of the steps:
as §1

Test [15] deals with T15, proteins of U2OS cell lysate (Homo sapiens, UniProt P68371).
T15 construct: Proteins enriched by c-ponatinib from U2OS cell lysate; endogenous in cells; host or cells: U2OS cell lysate
T15 sequence (P68371 whole entry): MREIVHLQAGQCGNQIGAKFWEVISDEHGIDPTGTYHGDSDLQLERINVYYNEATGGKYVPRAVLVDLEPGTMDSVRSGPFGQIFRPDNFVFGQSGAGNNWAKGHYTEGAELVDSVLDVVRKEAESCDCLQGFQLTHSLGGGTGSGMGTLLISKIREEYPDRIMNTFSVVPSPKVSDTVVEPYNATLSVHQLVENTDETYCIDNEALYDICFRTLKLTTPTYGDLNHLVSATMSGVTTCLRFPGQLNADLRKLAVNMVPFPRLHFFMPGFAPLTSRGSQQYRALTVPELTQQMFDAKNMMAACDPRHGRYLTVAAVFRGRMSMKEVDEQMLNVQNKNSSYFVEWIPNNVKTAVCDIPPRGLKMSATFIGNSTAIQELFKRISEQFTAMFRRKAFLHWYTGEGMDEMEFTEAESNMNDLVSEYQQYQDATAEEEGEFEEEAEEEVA
To be noted: TUBB4B;TUBB8, Tubulin beta-4B chain. The essentials:
as §1

Test [16] addresses T16, proteins of U2OS cell lysate (Homo sapiens, UniProt Q00610).
T16 construct: Proteins enriched by c-ponatinib from U2OS cell lysate; endogenous in cells; host or cells: U2OS cell lysate
The settings on record: CLTC, Clathrin heavy chain 1. The essentials: as §1

In test [17] the target is T17, proteins of U2OS cell lysate (Homo sapiens, UniProt Q09666).
T17 construct: Proteins enriched by c-ponatinib from U2OS cell lysate; endogenous in cells; host or cells: U2OS cell lysate
The settings on record: AHNAK, Neuroblast differentiation-associated protein AHNAK. An outline of the steps:
as §1

In test [18] the target is T18, proteins of U2OS cell lysate (Homo sapiens, UniProt P21333).
T18 construct: Proteins enriched by c-ponatinib from U2OS cell lysate; endogenous in cells; host or cells: U2OS cell lysate
To be noted: FLNA, Filamin-A. The essentials: as §1

In test [19] the target is T19, proteins of U2OS cell lysate (Homo sapiens, UniProt P62826).
T19 construct: Proteins enriched by c-ponatinib from U2OS cell lysate; endogenous in cells; host or cells: U2OS cell lysate
The settings on record: captured protein RAN, Rank 147. The essentials: as §1

T16 sequence (Q00610 whole entry): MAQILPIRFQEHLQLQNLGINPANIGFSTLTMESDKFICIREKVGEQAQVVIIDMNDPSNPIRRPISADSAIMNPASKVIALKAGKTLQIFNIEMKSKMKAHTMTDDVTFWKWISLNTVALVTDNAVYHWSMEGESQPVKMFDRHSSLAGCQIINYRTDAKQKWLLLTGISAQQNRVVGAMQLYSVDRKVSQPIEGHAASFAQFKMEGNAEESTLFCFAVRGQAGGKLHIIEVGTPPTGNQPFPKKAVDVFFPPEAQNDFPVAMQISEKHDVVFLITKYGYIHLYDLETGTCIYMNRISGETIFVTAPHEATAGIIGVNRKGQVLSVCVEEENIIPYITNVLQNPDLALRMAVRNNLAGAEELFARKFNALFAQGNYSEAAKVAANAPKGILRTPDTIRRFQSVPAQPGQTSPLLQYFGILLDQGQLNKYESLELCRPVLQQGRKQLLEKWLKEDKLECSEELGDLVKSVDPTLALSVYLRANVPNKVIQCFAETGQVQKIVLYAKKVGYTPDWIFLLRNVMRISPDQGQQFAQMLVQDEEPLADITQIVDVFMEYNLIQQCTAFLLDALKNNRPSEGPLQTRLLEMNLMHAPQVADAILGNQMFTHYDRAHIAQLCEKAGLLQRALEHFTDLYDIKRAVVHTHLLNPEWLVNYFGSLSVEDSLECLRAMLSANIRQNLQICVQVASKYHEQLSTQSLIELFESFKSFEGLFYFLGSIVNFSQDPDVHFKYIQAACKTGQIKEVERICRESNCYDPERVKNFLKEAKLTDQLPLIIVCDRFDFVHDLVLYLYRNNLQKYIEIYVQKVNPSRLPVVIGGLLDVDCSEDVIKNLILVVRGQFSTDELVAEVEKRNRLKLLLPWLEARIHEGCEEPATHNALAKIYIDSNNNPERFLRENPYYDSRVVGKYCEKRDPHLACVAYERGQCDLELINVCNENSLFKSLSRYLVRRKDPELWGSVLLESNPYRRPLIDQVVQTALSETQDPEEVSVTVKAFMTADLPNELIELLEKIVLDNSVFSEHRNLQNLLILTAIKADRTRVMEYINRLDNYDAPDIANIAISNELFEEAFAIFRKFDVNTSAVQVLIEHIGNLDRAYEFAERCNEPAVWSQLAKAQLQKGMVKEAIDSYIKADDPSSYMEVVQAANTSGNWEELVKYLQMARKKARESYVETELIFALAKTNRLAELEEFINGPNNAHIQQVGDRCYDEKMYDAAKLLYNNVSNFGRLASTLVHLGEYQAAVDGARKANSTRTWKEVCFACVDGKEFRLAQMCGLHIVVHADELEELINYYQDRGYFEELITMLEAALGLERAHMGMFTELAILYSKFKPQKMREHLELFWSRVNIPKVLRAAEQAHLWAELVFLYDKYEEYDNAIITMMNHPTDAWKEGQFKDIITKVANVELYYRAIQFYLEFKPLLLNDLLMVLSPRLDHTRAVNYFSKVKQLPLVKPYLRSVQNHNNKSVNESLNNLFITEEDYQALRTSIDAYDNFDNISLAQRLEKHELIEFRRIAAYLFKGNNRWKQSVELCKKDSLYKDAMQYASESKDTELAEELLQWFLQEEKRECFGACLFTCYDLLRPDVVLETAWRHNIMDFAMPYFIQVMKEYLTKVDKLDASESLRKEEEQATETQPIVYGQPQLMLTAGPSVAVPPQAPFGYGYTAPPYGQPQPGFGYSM
T8 sequence (O43809 whole entry): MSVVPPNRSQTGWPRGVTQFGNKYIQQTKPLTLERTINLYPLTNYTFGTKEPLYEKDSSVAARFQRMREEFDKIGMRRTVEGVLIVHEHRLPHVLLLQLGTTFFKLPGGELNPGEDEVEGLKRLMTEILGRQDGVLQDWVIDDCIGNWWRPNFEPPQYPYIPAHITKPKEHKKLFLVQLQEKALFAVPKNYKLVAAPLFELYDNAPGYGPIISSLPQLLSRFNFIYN
T6 sequence (O75935 whole entry): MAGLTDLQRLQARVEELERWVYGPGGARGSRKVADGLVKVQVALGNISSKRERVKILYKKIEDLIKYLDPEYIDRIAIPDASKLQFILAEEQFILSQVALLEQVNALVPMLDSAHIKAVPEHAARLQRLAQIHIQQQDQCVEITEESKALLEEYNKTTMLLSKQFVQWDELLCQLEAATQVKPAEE
T14 sequence (P07948 whole entry): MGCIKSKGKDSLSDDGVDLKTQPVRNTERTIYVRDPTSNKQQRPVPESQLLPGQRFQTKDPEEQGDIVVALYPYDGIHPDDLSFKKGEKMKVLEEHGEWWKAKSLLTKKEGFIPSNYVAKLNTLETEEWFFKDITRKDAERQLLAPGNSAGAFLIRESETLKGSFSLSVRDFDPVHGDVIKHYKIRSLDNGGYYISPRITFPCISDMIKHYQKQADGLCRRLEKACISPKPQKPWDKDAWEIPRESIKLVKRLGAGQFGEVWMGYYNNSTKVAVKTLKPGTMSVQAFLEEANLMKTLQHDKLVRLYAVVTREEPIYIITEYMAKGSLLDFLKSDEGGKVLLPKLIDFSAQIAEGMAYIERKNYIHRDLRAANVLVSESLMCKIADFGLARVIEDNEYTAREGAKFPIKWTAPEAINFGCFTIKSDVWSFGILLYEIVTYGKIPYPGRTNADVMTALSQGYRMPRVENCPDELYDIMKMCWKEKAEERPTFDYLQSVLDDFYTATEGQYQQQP

Turning to `Cc1ccc(C(=O)Nc2ccc(CN3CCN(C)CC3)c(C(F)(F)F)c2)cc1C#Cc1cnc2cccnn12` [PON], the “Average LFQ PON_WT” value is on record as 25.3205 in test [1]; 23.4858 in test [2]; 24.3032 in test [3]; 21.1903 in test [4]; 19.4794 in test [5]; 20.8844 in test [6]. In addition, the “Average LFQ PON_WT” value in test [7] came out at 19.7729; in [8], 20.8271; in test [9], 21.4059; in test [10], 21.4936; in [11], 27.1637; in [12], 20.2344. The “Average LFQ PON_WT” value in [13] amounted to 20.3652; in test [14], 23.7419; in test [15] it was 26.1041; in [16], 26.5716; in [17], 26.25; in [18] it was 25.7064.

Turning to `Cc1ccc(C(=O)Nc2ccc(CN3CCN(CCCN)CC3)c(C(F)(F)F)c2)cc1C#Cc1cnc2cccnn12` [c-ponatinib, reference compound], the “Average LFQ intensity” value in test [19] is listed as 22.7198.
